Consider 8 compounds from article PMC6143625, “A high throughput screen for next-generation leads targeting malaria parasite transmission” (Nature Communications, 2018).

pIC50: −log10 of the molar value. Like-named read-outs stand apart in the source and are kept apart here. Bounds are passed on as bounds.

The subject of experiment [1] is P. falciparum stage V male gametocytes (male gamete formation). As to the kind of experiment: P. falciparum dual gamete formation assay (Pf DGFA), male readout (exflagellation), 48 h carry-over format. To be noted: for pIC50 / inhibition at 2 µM: Plasmodium falciparum; for inhibition at 2 µM: primary screen, single replicate. It counts as cell-based, Plasmodium falciparum NF54.

The subject of experiment [2] is P. falciparum stage V female gametocytes (female gamete formation). As to the kind of experiment: P. falciparum dual gamete formation assay (Pf DGFA), female readout (Pfs25 expression), 48 h carry-over format. Particulars: Plasmodium falciparum; for inhibition at 2 µM: primary screen, single replicate. Format: cell-based, Plasmodium falciparum NF54.
Experiment [3] deals with P. falciparum 3D7 asexual blood stages. The experiment can be described thus: Whole-cell time extended asexual growth assay (pLDH). Particulars: Plasmodium falciparum; for IC50: dose response retest, read-out: IC50 (µM) Asex stages; for IC50 / inhibition at 2 µM: 72 h; for inhibition at 2 µM: primary screen, read-out: %Inh Asex stages @2uM. Format: cell-based. Here is the method: Asexual activity was assayed via Plasmodium lactate dehydrogenase activity (pLDH), a surrogate of asexual parasite growth. […] 2 µM artesunate and DMSO were used as the positive and negative controls, respectively. […] After plate mixing, NBT reduction was measured by absorbance at 650 nm using Envision (Perkin Elmer).

For experiment [4], the system named is Stage IV–V 3D7 gametocytes. The experiment can be described thus: Gametocytocidal ATP-based bioluminescence assay (GC-ATP). It counts as cell-based, Plasmodium falciparum 3D7. Particulars: Plasmodium falciparum, 3D7; 48h incubation; read-out: Pf late stage gametocyte (ATP depletion) IC50. Here is the method:
The metabolic viability of late stage gametocytes was determined using a gametocyte ATP bioluminescence assay. Stage IV–V 3D7 gametocyte cultures were double-purified by density gradient sedimentation over NycoPrep® followed by magnetic isolation. Then, parasites (50 µl per well containing 12,500 gametocytes) were added to compound pre-dispensed 384-well plates (781091, Greiner) and incubated at 37 °C for 48 h under 5% CO2/3% O2/92% N2. BacTiter-Glo® kit (G8231, Promega) was used to determine the ATP levels of viable parasites according to manufacturer’s instructions. After reagent addition (50 µl per well), luminescence of the plates was measured using a microplate reader (HTS counter Victor, Wallac).

[5] abbreviates: BPCA vs GHCDL stock of DDD599, adjusted for correct molecular weight, read-out: Pf DGFA male IC50.
Where [6] appears, read: SAR, Fig. 6 and Fig. 7, read-out: Male IC50.
The mark [7] stands for this setting: BPCA vs GHCDL stock of DDD599, adjusted for correct molecular weight, read-out: Pf DGFA female IC50.
Where [8] appears, read: profiling / reconfirmation, read-out: Pf asexual IC50.
The mark [9] stands for this setting: 24h preincubation/carry-over, read-out: Pf DGFA Female IC50.
Where [10] appears, read: 72h incubation, read-out: Pf Asexual IC50.
[11] abbreviates: 48 h, dose response retest of primary hits, 48 h incubation, read-out: Male IC50.
Where [12] appears, read: 48h preincubation/carry-over, read-out: Pf DGFA Male IC50.
The mark [13] stands for this setting: 48 h, dose response retest of primary hits, 48 h incubation, read-out: Female IC50.
[14] abbreviates: 48h preincubation/carry-over, read-out: Pf DGFA Female IC50.
The mark [15] stands for this setting: SAR, Fig. 7, read-out: Female IC50.

As to `O=C(CCl)Nc1ccc(Br)cc1` [BPCA, N-(4-bromophenyl)-2-chloroacetamide], the pIC50 – broadly, the negative decadic logarithm of the IC50, by convention in mol/L – in experiment [1] (setting [5]) is 5.84; in experiment [1] (setting [6]) it was 5.85; in experiment [2] (setting [7]), 4.96; in experiment [3] (setting [8]), 6.10. In experiment [1] (parasite selectivity compared to Tox50 in HepG2 cells), this compound came in with a Selectivity of 17.
With `CC(=O)c1c(C)nn(CC(=O)Nc2ccc(Br)cc2)c1C` [DDD01027599], the pIC50 is 5.79 in experiment [4]; 5.86 in experiment [1] (setting [5]); less than 4.30 in experiment [1] (compound resynthesised at GSK, read-out: IC50 against male gametocytes); less than 4.90 in experiment [2] (setting [9]); 5.46 in experiment [2] (setting [7]); less than 4.30 in experiment [2] (compound resynthesised at GSK, read-out: IC50 against female gametocytes). Also, the pIC50 was 6.19 in experiment [3] (setting [10]); less than 4.30 in experiment [3] (compound resynthesised at GSK, read-out: IC50 against asexuals); 6.10 in experiment [3] (setting [8]). Moreover, the “activity in the Pf DGFA” value in experiment [1] (freshly resynthesized compound) is “inactive”. In experiment [3], the IC50 (in general, the concentration that gives 50% inhibition) worked out at 1.02 µM. Besides, the inhibition at 2 µM in experiment [3] amounted to 80.5%.
For the compound `O=S(=O)(NCC1(O)CCOc2ccccc21)c1ccccc1F` (stereo not shown) [DDD01028073], the negative-log IC50 (pIC50) is less than 5.00 in experiment [4]; 6.54 in experiment [1] (setting [11]); 6.62 in experiment [1] (setting [12]); 6.47 in experiment [1] (setting [6]); less than 4.90 in experiment [2] (setting [9]); less than 5.00 in experiment [2] (setting [13]). Further, the pIC50 in experiment [2] (setting [14]) is less than 4.90; in experiment [2] (setting [15]), less than 4.90; in experiment [3] (setting [10]) it was less than 4.70. Also, the results for the inhibition at 2 µM in experiment [1] (48 h incubation) and in experiment [2] (48 h incubation) were 95% and less than 30%, respectively.
For the compound `Cc1ccc(S(=O)(=O)NCC2(O)CCOc3ccccc32)s1` (stereo not shown) [DDD01028074], the pIC50 was less than 5.00 in experiment [4]; 6.66 in experiment [1] (setting [11]); 6.31 in experiment [1] (setting [12]); 6.21 in experiment [1] (setting [6]); less than 4.90 in experiment [2] (setting [9]); less than 5.00 in experiment [2] (setting [13]). Besides, the pIC50 in experiment [2] (setting [14]) is less than 4.90; in experiment [2] (setting [15]) it was less than 4.90; in experiment [3] (setting [10]) it was less than 4.70. For the same compound, the results for the inhibition at 2 µM in experiment [1] (48 h incubation) and in experiment [2] (48 h incubation) were 101% and less than 30%, respectively.
Turning to `O=S(=O)(NCC1(O)CCOc2ccccc21)c1ccc(Cl)s1` (stereo not shown) [DDD01028075], the negative-log IC50 (pIC50) was less than 5.00 in experiment [4]; 6.35 in experiment [1] (setting [11]); 5.83 in experiment [1] (setting [12]); 6.62 in experiment [1] (setting [6]); less than 4.90 in experiment [2] (setting [9]); less than 5.00 in experiment [2] (setting [13]). For the same compound, the pIC50 in experiment [2] (setting [14]) is less than 4.90; in experiment [2] (setting [15]) it was less than 4.90; in experiment [3] (setting [10]) it was less than 4.70. For the same compound, the inhibition at 2 µM in experiment [1] (48 h incubation) is 53.1%; in experiment [2] (48 h incubation) it was less than 30%.
Turning to `O=S(=O)(NCC1(O)CCOc2ccccc21)c1ccccc1Br` (stereo not shown) [DDD01028076], the pIC50 was less than 5.00 in experiment [4]; 6.80 in experiment [1] (setting [11]); 6.14 in experiment [1] (setting [12]); 6.28 in experiment [1] (setting [6]); less than 4.90 in experiment [2] (setting [9]); less than 5.00 in experiment [2] (setting [13]). The pIC50 in experiment [2] (setting [14]) was less than 4.90; in experiment [2] (setting [15]), less than 4.90; in experiment [3] (setting [10]) it was less than 4.70. The inhibition at 2 µM is 98.3% in experiment [1] (48 h incubation) and less than 30% in experiment [2] (48 h incubation).
In the case of `COc1cccc(-n2ccc3nc(N4CCCC4)ncc3c2=O)c1` [DDD01034957], the pIC50 in experiment [4] was less than 5.00; in experiment [1] (setting [12]) it was less than 4.90; in experiment [2] (setting [9]), less than 4.90; in experiment [2] (setting [14]), less than 4.90; in experiment [3] (setting [10]), 6.77. Further, the IC50 in experiment [3] is 0.72 µM. Also, in experiment [3], the inhibition at 2 µM was found to be 58.1%.
For the compound `O=S(=O)(NCC1(O)CCOc2ccccc21)c1cccs1` (stereo not shown) [DDD01035879], the pIC50 in experiment [4] was less than 5.00; in experiment [1] (setting [11]), 5.96; in experiment [1] (setting [12]), 5.78; in experiment [1] (setting [6]), 6.55; in experiment [2] (setting [9]), less than 4.90; in experiment [2] (setting [13]), less than 5.00. Also, the negative-log IC50 (pIC50) in experiment [2] (setting [14]) is less than 4.90; in experiment [2] (setting [15]), less than 4.90; in experiment [3] (setting [10]), less than 4.70. Moreover, the values for the inhibition at 2 µM in experiment [1] (48 h incubation) and in experiment [2] (48 h incubation) were 83.8% and less than 30%, respectively.
